We go through 37 compounds from patent publication US8969363B2, “Heterocyclic compounds and uses thereof” (Infinity Pharmaceuticals, Inc., priority 2011, dated 2015).

Read-outs that look alike come from different tables or passages of the source. Some results are limits rather than exact numbers.

In one test the target is PI3Kβ. The test can be described thus: PI3 Kinase HTRF assay, PI3Kβ. The test is classed as biochemical, human. To be noted: 10 μM PIP2, 10 μM ATP; 'Greater than 10 μM' and 'Greater than 1 μM to 10 μM'; read-out: PI3K β IC50. The gist of the method: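 Recombinant PI3Kβ converting PIP2 (10 μM) to PIP3 with 10 μM ATP; PIP3 detected by competitive HTRF displacement of biotin-PIP3/GST-GRP1 PH domain complex. Emission ratios converted to % inhibition; IC50 by nonlinear regression.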
Chain of PI3Kβ (Q8BTI9 whole entry, the tested form may be a part): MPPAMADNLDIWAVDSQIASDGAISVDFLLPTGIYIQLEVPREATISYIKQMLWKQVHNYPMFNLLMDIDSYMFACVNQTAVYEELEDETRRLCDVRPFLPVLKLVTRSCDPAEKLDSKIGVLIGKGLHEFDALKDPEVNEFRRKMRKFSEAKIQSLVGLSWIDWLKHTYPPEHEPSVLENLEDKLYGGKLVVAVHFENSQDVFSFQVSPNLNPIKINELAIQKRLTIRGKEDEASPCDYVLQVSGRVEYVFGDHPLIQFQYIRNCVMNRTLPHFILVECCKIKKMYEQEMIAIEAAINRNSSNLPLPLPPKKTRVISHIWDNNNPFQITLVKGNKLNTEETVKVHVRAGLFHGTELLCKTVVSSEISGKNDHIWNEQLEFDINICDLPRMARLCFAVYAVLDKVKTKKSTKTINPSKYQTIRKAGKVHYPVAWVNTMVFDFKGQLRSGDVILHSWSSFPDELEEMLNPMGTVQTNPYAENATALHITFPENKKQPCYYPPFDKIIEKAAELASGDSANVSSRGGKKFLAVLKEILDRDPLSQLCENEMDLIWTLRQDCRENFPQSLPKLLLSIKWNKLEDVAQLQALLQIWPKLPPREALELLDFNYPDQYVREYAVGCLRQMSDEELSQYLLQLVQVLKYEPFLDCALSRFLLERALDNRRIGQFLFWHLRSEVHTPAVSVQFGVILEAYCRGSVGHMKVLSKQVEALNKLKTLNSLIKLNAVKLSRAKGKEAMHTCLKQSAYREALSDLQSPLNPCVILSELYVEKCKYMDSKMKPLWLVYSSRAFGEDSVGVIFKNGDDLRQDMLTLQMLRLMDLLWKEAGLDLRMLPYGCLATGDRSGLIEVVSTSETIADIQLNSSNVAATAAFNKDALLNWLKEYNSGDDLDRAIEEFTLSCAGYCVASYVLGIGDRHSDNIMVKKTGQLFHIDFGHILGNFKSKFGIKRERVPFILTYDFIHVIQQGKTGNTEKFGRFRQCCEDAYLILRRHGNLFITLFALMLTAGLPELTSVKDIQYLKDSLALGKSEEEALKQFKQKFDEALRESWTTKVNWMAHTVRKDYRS
(Time-resolved FRET reads energy transfer from a long-lived donor to a nearby acceptor.)

In a further test the target is T1, PI3Kγ (Homo sapiens, UniProt P48736).
T1 construct: purchased Millipore Corporation 14-558-K
T1 sequence (P48736 whole entry): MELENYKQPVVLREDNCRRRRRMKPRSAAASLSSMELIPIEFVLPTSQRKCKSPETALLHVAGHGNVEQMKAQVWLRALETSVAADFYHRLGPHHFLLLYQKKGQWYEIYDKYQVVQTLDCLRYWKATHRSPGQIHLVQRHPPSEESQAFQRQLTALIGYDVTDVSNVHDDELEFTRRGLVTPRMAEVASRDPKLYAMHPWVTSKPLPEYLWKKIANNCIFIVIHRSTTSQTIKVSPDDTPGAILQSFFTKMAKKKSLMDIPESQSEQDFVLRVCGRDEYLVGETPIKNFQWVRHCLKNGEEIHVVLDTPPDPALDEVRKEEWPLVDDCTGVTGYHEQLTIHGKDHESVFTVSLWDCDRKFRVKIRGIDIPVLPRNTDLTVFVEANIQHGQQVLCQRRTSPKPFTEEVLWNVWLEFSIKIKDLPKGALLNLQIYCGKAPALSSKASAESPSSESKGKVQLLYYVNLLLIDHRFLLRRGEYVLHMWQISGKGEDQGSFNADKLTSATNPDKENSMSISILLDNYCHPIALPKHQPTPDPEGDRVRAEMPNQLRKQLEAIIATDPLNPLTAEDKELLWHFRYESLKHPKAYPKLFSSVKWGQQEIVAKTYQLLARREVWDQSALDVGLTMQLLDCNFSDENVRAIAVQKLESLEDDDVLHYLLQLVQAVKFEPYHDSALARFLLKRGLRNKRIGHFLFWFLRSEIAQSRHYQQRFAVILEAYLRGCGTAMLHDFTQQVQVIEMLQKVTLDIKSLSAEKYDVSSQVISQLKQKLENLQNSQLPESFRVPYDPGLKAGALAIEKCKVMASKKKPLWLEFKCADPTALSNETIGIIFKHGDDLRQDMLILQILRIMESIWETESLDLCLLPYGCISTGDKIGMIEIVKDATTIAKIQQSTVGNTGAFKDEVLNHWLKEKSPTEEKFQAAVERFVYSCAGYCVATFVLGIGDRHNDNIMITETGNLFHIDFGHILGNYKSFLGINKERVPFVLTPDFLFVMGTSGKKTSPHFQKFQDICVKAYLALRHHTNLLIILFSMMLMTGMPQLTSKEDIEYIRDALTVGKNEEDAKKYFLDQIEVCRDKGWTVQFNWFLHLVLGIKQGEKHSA
The test can be described thus: PI3 Kinase HTRF assay, PI3Kγ. It is filed as biochemical. To be noted: 10 μM PIP2, 10 μM ATP; 'Greater than 10 μM' and 'Greater than 1 μM to 10 μM'; read-out: PI3K γ IC50. The text has this:
(§1) A PI3-Kinase HTRF® assay kit (cat No. 33-016) purchased from Millipore Corporation was used to screen compounds provided herein. This assay used specific, high affinity binding of the GRP1 pleckstrin homology (PH) domain to PIP3, the product of a Class 1A or 1B PI3 Kinase acting on its physiological substrate PIP2. During the detection phase of the assay, a complex was generated between the GST-tagged PH domain and biotinylated short chain PIP3. The biotinylated PIP3 and the GST-tagged PH domain recruited fluorophores (Streptavidin-Allophycocyanin and Europium-labeled anti-GST respectively) to form the fluorescence resonance energy transfer (FRET) architecture, generating a stable time-resolved FRET signal. The FRET complex was disrupted in a competitive manner by non-biotinylated PIP3, a product formed in the PI3 Kinase assay.
(§2) PI3 Kinase α, β, γ and δ activity was assayed using the PI3 Kinase HTRF® assay kit (catalogue No. 33-016) purchased from Millipore Corporation. Purified recombinant PI3Kα (catalogue No. 14-602-K), PI3Kβ (catalogue No. 14-603-K), PI3Kγ (catalogue No. 14-558-K) and PI3Kδ (catalogue No. 14-604-K) were obtained from Millipore Corporation. Purified recombinant PI3K enzyme was used to catalyze the phosphorylation of phosphatidylinositol 4,5-bisphosphate (PIP2 at 10 μM) to phosphatidylinositol 3,4,5-trisphosphate (PIP3) in the presence of 10 μM ATP. The assay was carried out in 384-well format and detected using a Perkin Elmer EnVision Xcite Multilabel Reader. Emission ratios were converted into percent inhibitions and imported into GraphPad Prism software. The concentration necessary to achieve inhibition of enzyme activity by 50% (IC50) was calculated using concentrations ranging from 20 μM to 0.1 nM (12-point curve). IC50 values were determined using a nonlinear regression model available in GraphPad Prism 5. […]

Another test deals with T2, PI3Kα (Homo sapiens, UniProt P42336).
T2 construct: purchased Millipore Corporation 14-602-K
T2 sequence (P42336 whole entry): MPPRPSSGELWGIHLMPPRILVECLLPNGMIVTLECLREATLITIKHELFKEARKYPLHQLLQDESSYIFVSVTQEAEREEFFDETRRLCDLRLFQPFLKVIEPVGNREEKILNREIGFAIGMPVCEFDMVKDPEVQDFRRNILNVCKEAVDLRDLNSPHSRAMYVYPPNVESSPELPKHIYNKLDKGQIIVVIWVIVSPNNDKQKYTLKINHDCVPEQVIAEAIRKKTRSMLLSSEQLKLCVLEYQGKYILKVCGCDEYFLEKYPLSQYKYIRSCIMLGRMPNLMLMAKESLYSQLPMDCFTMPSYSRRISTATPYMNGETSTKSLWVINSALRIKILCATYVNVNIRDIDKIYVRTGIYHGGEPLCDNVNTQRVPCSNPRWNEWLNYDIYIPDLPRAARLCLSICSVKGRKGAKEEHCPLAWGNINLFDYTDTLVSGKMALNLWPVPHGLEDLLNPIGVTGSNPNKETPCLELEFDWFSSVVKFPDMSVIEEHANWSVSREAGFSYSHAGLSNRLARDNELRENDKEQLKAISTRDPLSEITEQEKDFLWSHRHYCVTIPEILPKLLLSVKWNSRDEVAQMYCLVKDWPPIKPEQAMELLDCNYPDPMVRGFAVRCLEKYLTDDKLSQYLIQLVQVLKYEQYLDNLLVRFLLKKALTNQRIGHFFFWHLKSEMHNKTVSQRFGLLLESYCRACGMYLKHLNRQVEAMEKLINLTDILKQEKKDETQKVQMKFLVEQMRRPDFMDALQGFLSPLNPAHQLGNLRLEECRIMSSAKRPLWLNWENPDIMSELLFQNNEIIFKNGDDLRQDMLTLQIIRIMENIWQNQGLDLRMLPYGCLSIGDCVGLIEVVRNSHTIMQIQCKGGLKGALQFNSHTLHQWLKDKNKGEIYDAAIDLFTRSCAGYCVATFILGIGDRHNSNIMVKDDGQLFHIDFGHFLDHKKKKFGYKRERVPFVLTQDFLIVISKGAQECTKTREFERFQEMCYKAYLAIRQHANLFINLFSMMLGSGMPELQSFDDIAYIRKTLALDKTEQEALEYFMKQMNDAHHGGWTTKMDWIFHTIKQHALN
T2 sequence (P27986 whole entry partner): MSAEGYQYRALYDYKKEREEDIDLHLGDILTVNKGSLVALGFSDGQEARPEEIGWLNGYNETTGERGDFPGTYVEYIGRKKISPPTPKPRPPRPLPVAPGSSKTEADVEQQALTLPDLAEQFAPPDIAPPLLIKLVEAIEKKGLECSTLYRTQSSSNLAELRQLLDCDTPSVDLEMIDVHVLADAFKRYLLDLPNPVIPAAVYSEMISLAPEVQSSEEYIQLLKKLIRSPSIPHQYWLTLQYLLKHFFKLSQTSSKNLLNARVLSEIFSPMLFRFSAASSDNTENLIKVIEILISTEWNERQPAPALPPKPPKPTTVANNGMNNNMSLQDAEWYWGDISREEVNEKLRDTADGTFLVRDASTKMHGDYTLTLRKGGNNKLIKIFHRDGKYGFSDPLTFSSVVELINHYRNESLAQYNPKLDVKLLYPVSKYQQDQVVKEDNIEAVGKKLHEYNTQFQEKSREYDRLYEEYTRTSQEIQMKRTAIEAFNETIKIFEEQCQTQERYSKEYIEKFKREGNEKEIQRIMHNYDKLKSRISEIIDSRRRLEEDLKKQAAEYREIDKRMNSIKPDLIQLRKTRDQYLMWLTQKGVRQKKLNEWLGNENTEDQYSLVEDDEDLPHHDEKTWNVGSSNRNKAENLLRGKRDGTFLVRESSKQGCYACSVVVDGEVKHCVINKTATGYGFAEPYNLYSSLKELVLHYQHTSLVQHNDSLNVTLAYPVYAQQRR
The test can be described thus: PI3 Kinase HTRF assay, PI3Kα. The test is classed as biochemical. The note with it: 10 μM PIP2, 10 μM ATP; 'Greater than 10 μM' and 'Greater than 1 μM to 10 μM'; read-out: PI3K α IC50.
From the text: as §1, §2

The test system of the next test is Balb/c splenic B cells. The test can be described thus: B cell activation and proliferation assay (Alamar Blue). It is filed as cell-based. To be noted: Mus musculus. The gist of the method:
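Balb/c splenic B cells (Ficoll, then MACS purification; 50,000/well) were preincubated 30 min with compound at 0.2% final DMSO. They were then stimulated 72 h at 37 °C with a cocktail of 10 μg/ml LPS, or 5 μg/ml anti-mouse F(ab′)2 plus 2 ng/ml mouse IL4. Alamar Blue was read after 5 h at 560Ex/590Em, giving IC50 or EC50.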

Another test has as its target T3, PI3Kδ (Homo sapiens, UniProt O00329).
T3 construct: purchased Millipore Corporation 14-604-K
The test can be described thus: PI3 Kinase HTRF assay, PI3Kδ. The test is classed as biochemical. To be noted: 10 μM PIP2, 10 μM ATP, read-out: PI3K δ IC50.
From the text: as §1, §2

The mark [1] stands for this setting: 'Greater than 10 μM' and 'Greater than 1 μM to 10 μM'.

T3 sequence (O00329 whole entry): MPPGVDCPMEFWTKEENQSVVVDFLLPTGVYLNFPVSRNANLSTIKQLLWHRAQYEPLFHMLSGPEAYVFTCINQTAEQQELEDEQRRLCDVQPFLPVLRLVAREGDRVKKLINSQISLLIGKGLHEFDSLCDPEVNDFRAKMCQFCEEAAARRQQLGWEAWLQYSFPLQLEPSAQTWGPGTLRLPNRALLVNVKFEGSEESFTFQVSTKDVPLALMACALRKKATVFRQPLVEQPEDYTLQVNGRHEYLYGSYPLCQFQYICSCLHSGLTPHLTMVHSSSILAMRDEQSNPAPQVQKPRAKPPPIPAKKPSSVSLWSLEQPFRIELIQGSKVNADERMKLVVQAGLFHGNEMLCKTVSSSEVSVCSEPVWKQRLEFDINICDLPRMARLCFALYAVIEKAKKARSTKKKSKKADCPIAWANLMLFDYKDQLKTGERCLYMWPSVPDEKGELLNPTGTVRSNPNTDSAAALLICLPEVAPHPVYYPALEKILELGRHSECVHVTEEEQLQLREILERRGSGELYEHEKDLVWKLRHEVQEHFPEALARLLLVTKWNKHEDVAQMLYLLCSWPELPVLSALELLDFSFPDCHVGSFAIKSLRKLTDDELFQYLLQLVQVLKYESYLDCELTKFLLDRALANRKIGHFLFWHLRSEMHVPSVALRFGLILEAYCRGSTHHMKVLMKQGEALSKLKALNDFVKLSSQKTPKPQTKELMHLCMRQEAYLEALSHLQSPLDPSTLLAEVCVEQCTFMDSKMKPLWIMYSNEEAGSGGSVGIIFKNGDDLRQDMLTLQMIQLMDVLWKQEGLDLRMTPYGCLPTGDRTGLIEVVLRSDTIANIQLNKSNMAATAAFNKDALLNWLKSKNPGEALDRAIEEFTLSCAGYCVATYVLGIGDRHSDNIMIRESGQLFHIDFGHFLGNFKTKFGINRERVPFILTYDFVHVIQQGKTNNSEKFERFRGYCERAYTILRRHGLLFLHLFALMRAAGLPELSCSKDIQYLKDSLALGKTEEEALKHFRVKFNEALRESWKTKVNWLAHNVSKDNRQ
T3 sequence (P27986 whole entry partner): as the sequence (P27986 whole entry partner) above

Turning to `C[C@H](Nc1ncnc2cccnc12)c1cc2cc(F)ccc2c(=O)n1-c1ccccc1` [Compound I-6], the IC50 (in general, the concentration at which inhibition is half-maximal) is above 10 µM at PI3Kβ, 1 to 10 µM on PI3Kγ and 1 to 10 µM on PI3Kα. Also, the EC50 (usually the concentration giving half of the maximal effect) in the test with Balb/c splenic B cells (1 μM to 100 nM) was 0.1 to 1 µM.
Consider `C[C@H](Nc1ncnc2cccnc12)c1cc2c(F)ccc(Cl)c2c(=O)n1-c1ccccc1` [Compound I-14], for which the IC50 at PI3Kδ ('Less than 100 nM') was below 0.1 µM. For the same compound, in the test on Balb/c splenic B cells ('Less than 100 nM'), the EC50 was below 0.1 µM.
Regarding `Cc1nsc2cc(C(C)Nc3ncnc4cccnc34)n(-c3ccccc3)c(=O)c12` (stereo not drawn) [Compound I-27], the values for the IC50 at PI3Kβ and at PI3Kγ were above 10 µM and 1 to 10 µM, respectively. Also, the EC50 in the test on Balb/c splenic B cells (1 μM to 100 nM) was in the range of 0.1 to 1 µM.
With `C[C@H](Nc1ncnc2cccnc12)c1cc2scc(-c3cnn(C)c3)c2c(=O)n1-c1ccccc1` [Compound I-30], the IC50 was above 10 µM on PI3Kβ and 1 to 10 µM on PI3Kδ (setting [1]).
Consider `C[C@H](Nc1ncnc2cccnc12)c1cc2cccc(-c3cnn(C)c3)c2c(=O)n1C` [Compound I-46], for which the IC50 at PI3Kβ was above 10 µM; at PI3Kγ, 1 to 10 µM; on PI3Kδ (setting [1]), 1 to 10 µM.
`C[C@H](Nc1nc(Cl)nc2cccnc12)c1cc2cccc(Cl)c2c(=O)n1-c1ccccc1` [Compound I-52]: the values for the IC50 on PI3Kβ and at PI3Kδ (setting [1]) were above 10 µM and 1 to 10 µM, respectively. Moreover, the EC50 in the test with Balb/c splenic B cells (1 μM to 100 nM) lay in the range of 0.1 to 1 µM.
Regarding `C[C@H](Nc1c(C#N)cnc2cccnc12)c1cc2cccc(Cl)c2c(=O)n1-c1ccccc1` [Compound I-53], the IC50 at PI3Kβ is above 10 µM; on PI3Kγ, 1 to 10 µM.
For `C[C@H](Nc1c(C#N)cnc2cccnc12)c1cc2cccc(Cl)c2c(=O)n1-c1cccc(F)c1` [Compound I-54] the same measures were above 10 µM and 1 to 10 µM.
`C[C@H](Nc1c(C#N)cnc2cccnc12)c1cc2cccc(-c3cnn(C)c3)c2c(=O)n1-c1ccccc1` [Compound I-55]: the IC50 is above 10 µM on PI3Kβ and 1 to 10 µM on PI3Kγ.
On to `Cc1ccnc2cc(C(C)Nc3ncnc4cccnc34)[nH]c(=O)c12` (stereo not drawn) [Compound I-68, 4-methyl-7-(1-(pyrido[3,2-d]pyrimidin-4-ylamino)ethyl)-1,6-naphthyridin-5(6H)-one], for which the figures for the IC50 at PI3Kβ and at PI3Kδ (setting [1]) were above 10 µM and 1 to 10 µM, respectively.
As to `COc1ncc(-c2cccc3cc([C@H](C)Nc4cc(O)nc5cccnc45)n(-c4ccccc4)c(=O)c23)cn1` [Compound I-99], the IC50 at PI3Kβ is above 10 µM; on PI3Kδ (setting [1]), 1 to 10 µM. This compound also showed an EC50 in the test on Balb/c splenic B cells (column 'Greater than 1 μM to 10 μM') of 1 to 10 µM.
For the compound `C[C@H](Nc1nc(N)nc2cccnc12)c1cc2cccc(N(C)C)c2c(=O)n1-c1ccccc1` [Compound I-102], the IC50 was above 10 µM at PI3Kβ and 1 to 10 µM on PI3Kδ (setting [1]).
For `C[C@H](Nc1ccnc2ccnn12)c1cc2cccc(-c3cnn(C)c3)c2c(=O)n1C1CC1` [II-8], the IC50 on PI3Kβ, on PI3Kγ and on PI3Kα was 1 to 10 µM each time.
In the case of `C[C@H](Nc1cc(Cl)nn2ccnc12)c1cc2cccc(-c3cnn(C)c3)c2c(=O)n1C1CC1` [II-13], the IC50 on PI3Kβ is above 10 µM; on PI3Kγ it was 1 to 10 µM; at PI3Kδ (setting [1]), 1 to 10 µM.
Turning to `C[C@H](Nc1ccnc2ccnn12)c1cc2cccc(Cl)c2c(=O)n1CCN1CCCC1` [II-28], the IC50 on PI3Kβ and at PI3Kδ (setting [1]) was 1 to 10 µM each time.
Take `C[C@H](Nc1ccnn2ccnc12)c1cc2cccc(Cl)c2c(=O)n1CCN1CCCC1` [II-29]: the IC50 at PI3Kβ and at PI3Kδ (setting [1]) was 1 to 10 µM in each case.
With `Cc1cn2nccc(N[C@@H](C)c3cc4cccc(Cl)c4c(=O)n3-c3cccc(F)c3)c2n1` [II-31], the IC50 is above 10 µM at PI3Kβ, 1 to 10 µM on PI3Kγ and 1 to 10 µM at PI3Kδ (setting [1]).
Consider `Cc1cn2nccc(N[C@@H](C)c3cc4cccc(Cl)c4c(=O)n3-c3ccccc3)c2n1` [II-32], for which the IC50 at PI3Kβ is above 10 µM; on PI3Kγ it was 1 to 10 µM; on PI3Kδ (setting [1]), 1 to 10 µM.
For the compound `Cc1cn2nccc(N[C@@H](C)c3cc4cccc(-c5cnn(C)c5)c4c(=O)n3-c3ccccc3)c2n1` [II-33], the IC50 at PI3Kβ is above 10 µM; on PI3Kγ it was 1 to 10 µM; on PI3Kδ (setting [1]), 1 to 10 µM.
For `C[C@H](Nc1ncnc2ccnn12)c1cc2cccc(Cl)c2c(C(=O)N2CCOCC2)n1` [II-44], the IC50 on PI3Kβ was 1 to 10 µM; at PI3Kγ, 1 to 10 µM; at PI3Kα, above 10 µM.
With `C[C@H](Nc1ncnc2cccnc12)c1cc2cccc(C(F)(F)F)c2c(=O)n1-c1cccc(F)c1` [III-12], the IC50 on PI3Kβ and at PI3Kα was 1 to 10 µM each time. In the test on Balb/c splenic B cells ('Less than 100 nM'), this compound came in with an EC50 below 0.1 µM.
On to `C[C@H](Nc1cc(Cl)nn2ccnc12)c1cc2cccc(C(F)(F)F)c2c(=O)n1-c1cccc(F)c1` [III-14], for which the IC50 at PI3Kβ is above 10 µM; on PI3Kγ it was 1 to 10 µM.
Regarding `C[C@H](Nc1ccnn2ccnc12)c1cc2cccc(C(F)(F)F)c2c(=O)n1-c1cccc(F)c1` [III-15], the IC50 on PI3Kβ and at PI3Kα was 1 to 10 µM each time. In addition, in the test with Balb/c splenic B cells ('Less than 100 nM'), the EC50 was below 0.1 µM.
Regarding `C[C@H](Nc1nc(Cl)nc2cccnc12)c1cc2cccc(C(F)(F)F)c2c(=O)n1-c1ccccc1` [III-22], the IC50 is above 10 µM on PI3Kβ and 1 to 10 µM at PI3Kδ (setting [1]).
In the case of `Cc1nc2c(N[C@@H](C)c3cc4cccc(C(F)(F)F)c4c(=O)n3-c3ccccc3)ncnc2s1` [III-26], the IC50 on PI3Kβ is above 10 µM; on PI3Kγ it was 1 to 10 µM.
With `C[C@H](Nc1ncnn2cncc12)c1cc2cccc(C(F)(F)F)c2c(=O)n1-c1ccccc1` [III-28], the IC50 is above 10 µM at PI3Kβ and 1 to 10 µM at PI3Kδ (setting [1]).
Consider `Cc1cn2nccc(N[C@@H](C)c3cc4cccc(C(F)(F)F)c4c(=O)n3-c3ccccc3)c2n1` [III-29], for which the IC50 on PI3Kβ was above 10 µM; at PI3Kγ it was 1 to 10 µM.
The like results for `C[C@H](Nc1c(C#N)cnc2cccnc12)c1cc2cccc(C(F)(F)F)c2c(=O)n1-c1ccccc1` [III-37] were, in that order, above 10 µM and 1 to 10 µM.
For `C[C@H](Nc1ncnc2[nH]cnc12)c1cc2scc(C(F)(F)F)c2c(=O)n1-c1ccccc1` [III-40], the 50% inhibitory concentration (IC50) on PI3Kγ lay in the range of 1 to 10 µM.
Turning to `C[C@H](Nc1ncnc2cccnc12)c1cc2scc(C(F)(F)F)c2c(=O)n1-c1ccccc1` [III-41], the IC50 is above 10 µM at PI3Kβ and 1 to 10 µM at PI3Kγ. Besides, the EC50 with Balb/c splenic B cells ('Less than 100 nM') was below 0.1 µM.
Take `COc1nc(N[C@@H](C)c2cc3cccc(C(F)(F)F)c3c(=O)n2-c2cccc(F)c2)c2ncccc2n1` [III-43]: the IC50 at PI3Kβ is above 10 µM; at PI3Kγ, 1 to 10 µM.
As to `C[C@H](Nc1ncnc(N)n1)c1cc2cccc(Cl)c2c(=O)n1-c1cccc(F)c1` [IV-2], the values for the IC50 on PI3Kβ and at PI3Kγ were above 10 µM and 1 to 10 µM, respectively. This compound came in with an EC50 in the test with Balb/c splenic B cells ('Less than 100 nM') below 0.1 µM.
Regarding `C[C@H](Nc1ncc2[nH]cnc2n1)c1cc2cccc(Cl)c2c(=O)n1-c1ccccc1` [IV-7], the IC50 at PI3Kβ is above 10 µM; on PI3Kδ (setting [1]) it was 1 to 10 µM.
For `C[C@H](NCc1cnc2cccnn12)c1cc2cccc(Cl)c2c(=O)n1-c1ccccc1` [IV-9, (S)-8-chloro-3-(1-(imidazo[1,2-b]pyridazin-3-ylmethylamino)ethyl)-2-phenylisoquinolin-1(2H)-one] the same measures were above 10 µM and 1 to 10 µM.
The like results for `C[C@H](Nc1ncnn2cncc12)c1cc2cccc(Cl)c2c(=O)n1-c1cccc(F)c1` [IV-14] were, in that order, above 10 µM and 1 to 10 µM.
For `C[C@H](Nc1nc(Cl)nc2nc(Cl)cnc12)c1cc2cccc(Cl)c2c(=O)n1-c1ccccc1` [IV-19], the IC50 on PI3Kβ is above 10 µM; at PI3Kδ (setting [1]), 1 to 10 µM.
In the case of `C[C@H](Nc1nc(Cl)nc2nccnc12)c1cc2cccc(Cl)c2c(=O)n1-c1ccccc1` [IV-20], the IC50 was above 10 µM at PI3Kβ, 1 to 10 µM at PI3Kγ and 1 to 10 µM on PI3Kδ (setting [1]).
